Tests used:
Format in all cases: cell-based, human
GADD153 mRNA = GADD153 mRNA level in UMSCC10b cells and cDDP-resistant sublines after cDDP exposure, RT-PCR
Description: In order to permit use of needle aspiration biopsies of tumors, the highly sensitive technique of RT-PCR rather than the less sensitive technique of Northern blot analysis was utilized throughout for quantitation of mRNA. The magnitude of the change in GADD153 mRNA level as a function of cisplatin (cDDP) concentration was determined by treating UMSCC10b cells with 0.1, 1, 10, or 100 μM cDDP for 1 h and quantifying GADD153 mRNA in untreated and treated cells harvested at 24 h by RT-PCR. The procedure is detailed in the attached examples. The results in FIG. 1 indicate that a concentration-dependent magnitude of increase in GADD153 mRNA levels reached 6-fold at the highest cDDP concentration tested. FIG. 2 depicts the time course of increase in GADD153 following a 1 h exposure to 100 μM cDDP. An increase in GADD153 mRNA level was evident at 12 h after cDDP exposure, and the peak occurred at 24 h followed by a decline to baseline levels by 96 h. β-ACTIN was used as an internal standard to normalize the data.
Without being held to a particular mechanism of action, the present inventors believe that the magnitude of increase in GADD153 mRNA level reflects the extent of tumor cell damage in a tumor treated with a chemotherapeutic agent. Supportive evidence was obtained using sublines of UMSCC10b selected for cDDP resistance. The parental cells, the 3-fold resistant subline UMSCC10b-Pt/S6 (15,16), and the 6-fold resistant subline UMSCC10b-Pt/S15 (15,16) were exposed to 2, 7, 12 μM cDDP for 1 h. These levels of exposure correspond to the IC10, IC50, and IC70 for the parental cell line, respectively.
To assure that the resistant variants had not lost their capacity to activate the GADD153 gene, and to validate the change in GADD153 level as a molecular marker of tumor injury in drug resistant as well as sensitive cells, the effect of cDDP applied at equitoxic concentrations was compared between the parental cells and the two resistant sublines.
To determine the time course of the change in GADD153 mRNA level, UMSCC10b cells were incubated with 100 μM cDDP for 1 h and total RNA was extracted at 0, 1, 2, 6, 12, 24, 48, 72 and 96 h after treatment. To analyze the effect of cDDP concentration on the expression of GADD153 , UMSCC10b cells were incubated for 1 h with various cDDP concentrations (0, 0.1, 1, 10, 100 and 1000 μM) and RNA was extracted 24 h after cDDP exposure.
UMSCC10b cells were harvested in 10 ml of denaturing solution (4 M guanidinium thiocyanate, 25 mM sodium citrate, pH 7, 0.5% sarcosyl, and 0.1 M 2-mercaptoethanol. After adding 1 ml of 2 M sodium acetate (pH 4), 10 ml of water-saturated phenol (pH 4) and 2 ml of chloroform:isoamyl alcohol (49:1) to the denatured cells, they were mixed thoroughly, placed on ice for 15 min, and centrifuged at 2800 rpm for 20 min at 4° C. The aqueous phase was collected and mixed with 10 ml of isopropyl alcohol, placed for 1 h at −20° C. and centrifuged. The pellet was dissolved in 1.8 ml of denaturing solution and 2 ml of isopropyl alcohol, placed for 1 h at −20° C. and centrifuged. The pellet was washed with 1 ml of 80% ethanol and then centrifuged at 5000 rpm for 10 min at room temperature. The RNA pellet was dried for 20 min in a tissue culture hood and resuspended in 100 μl of DEPC-treated water. Of this solution, 50 μl was used immediately for cDNA synthesis.
GADD153 message levels were quantified using a modification of the technique reported by Horikoshi et al (20). Total RNA acquired from the biopsies or xenografts was reverse-transcribed using random hexamers to produce cDNA (20,21,22). Serial dilutions of the CDNA were made and 5 μl of each dilution was placed in a sterile 0.5 ml Eppendorf tube. […]

UMSCC10b-Pt/S6 = test: Sensitivity to cDDP in vitro, clonogenic assay; settings: subline UMSCC10b-Pt/S6
Description: (§1) UMSCC10b cells were selected for cDDP resistance by chronic exposure to cDDP which was supplied by (Bristol-Meyers-Squibb, Princeton, N.Y.). The first three selections were performed at a concentration of 0.5 μM which allowed approximately 10^7 cells to grow to confluence in a 150 cm^2 flask within one week. For every following set of 3 selections, the cDDP concentration was increased by approximately 20% (15,16). The sensitivity of the UMSCC10b cell line and its cDDP-resistant variants to cDDP was determined by clonogenic assay using a 1 h cDDP exposure. A single-cell suspension was plated into 60 mm tissue culture dishes (Corning) at 300 cells per dish in fresh medium. After incubation for 24 h at 37° C., cells had attached to the plates and cDDP was added to the cells and incubated for 1 h following which the cells were washed twice with phosphate-buffered saline and 5 ml of fresh medium was added. Cultures were incubated for an additional 13-15 days following which there were fixed with methanol, stained with Giemsa, and clusters of >50 cells were scored as colonies. cDDP-selected cells were cultured in drug-free media for 2 weeks before cDDP sensitivity was determined by clonogenic assay.

UMSCC10b-Pt/S15 = test: Sensitivity to cDDP in vitro, clonogenic assay; settings: subline UMSCC10b-Pt/S15
Description: as §1

UMSCC10b cells = test: Sensitivity to cDDP in vitro, clonogenic assay; settings: parental cell line, 1 h exposure
Description: as §1, with “The” for “UMSCC10b cells were selected for cDDP resistance by chronic exposure to cDDP which was supplied by (Bristol-Meyers-Squibb, Princeton, N.Y.). The first three selections were performed at a concentration of 0.5 μM which allowed approximately 10^7 cells to grow to confluence in a 150 cm^2 flask within one week. For every following set of 3 selections, the cDDP concentration was increased by approximately 20% (15,16). The”

[1] = UMSCC10b cells, 1 h exposure to 100 μM cDDP

`[NH2][Pt]([NH2])([Cl])[Cl]` [cDDP, cisplatin] was tested, and the “magnitude of the increase in GADD153 mRNA level” value (GADD153 mRNA; 3-fold resistant variant UMSCC10b-Pt/S6, 2, 7, 12 μM cDDP for 1 h (equimolar)) was “lower than in the parental cells”, the “expression of GADD153” value (GADD153 mRNA; 6-fold resistant variant UMSCC10b-Pt/S15, 2, 7, 12 μM cDDP for 1 h (equimolar)) was “did not increase above its baseline level” and the “time at which increase in GADD153 mRNA level was evident” value (GADD153 mRNA; [1]) was 12 h. For the same compound, the “time of decline of GADD153 mRNA to baseline levels” value (GADD153 mRNA; [1]) was ≤ 96 h, the “time of peak GADD153 mRNA level” value (GADD153 mRNA; [1]) was 24 h and the “magnitude of increase in GADD153 mRNA levels” value (GADD153 mRNA; UMSCC10b cells, 1 h exposure, highest cDDP concentration tested (100 μM), harvested at 24 h) was 6 fold. The “change in expression of GADD153 at equitoxic concentrations” value (GADD153 mRNA; parental cells and two resistant sublines, IC10, IC50, IC70) was “no difference between the cell lines”, the “cDDP resistance relative to parental cells” value (UMSCC10b-Pt/S6) was 3 fold and the “cDDP resistance relative to parental cells” value (UMSCC10b-Pt/S15) was 6 fold. The IC10 (UMSCC10b cells) was 2 µM, the IC50 (UMSCC10b cells) was 7 µM and the IC70 (UMSCC10b cells) was 12 µM.

Reference: patent US6447997B1, “Gene coding for GADD153 as a clinical diagnostic and prognostic in cancer therapy” (Research Development Foundation, priority 1997, dated 2002)
